{
  "source": "patent US6350729B1",
  "about": "“Inhibition of nitric oxide-mediated hypotension and septic shock with iron-containing hemoprotein” (Board of Regents, The University of Texas System, priority 1992, dated 2002)",
  "key": {"[1]": {"system": "endotoxin-induced hypotension", "experiment": "Endotoxin-induced hypotension in anesthetized dog, mean arterial blood pressure", "type": "in vivo", "procedure": "Experiments were carried out on conditioned mongrel dogs weighing 23-28 kg. Animal care was in accordance with the recommendations of the American Association for Accreditation of Laboratory Animal Care and met all standards prescribed by the Guide for the Care and Use of Laboratory Animals (Committee on Care and Use of Laboratory Animals (1978) Guide for the Care and Use of Laboratory Animals (Natl. Inst. Health, Bethesda, Md.) DHEW Publ. No. (NIH) 78-83.\nThe dog was fasted overnight before the day of the experiment and was anesthetized with pentobarbital (25 mg/kg, i.v.), orotracheally intubated and ventilated with a Harvard pump at a nominal rate of 12 breaths per minute and a tidal volume of 15 ml/kg. The dog was instrumented with a cordis for the introduction of a Swan-ganz catheter for measurement of central venous and pulmonary arterial pressures as well as an arterial line for continuous blood pressure monitoring via a computer driven analog to digital processor.\nAfter the blood pressure and heart rate was stabilized, endotoxin was administered to the dog as a bolus injection (50 μg/kg, i.v. in 10 ml DPBS. After the onset of hypotension, a rapid infusion of 50 ml hemoglobin (5.0 g commercially available bovine hemoglobin/100 ml) over 20 seconds was administered by a central venous catheter. Cardiovascular changes were monitored for an additional 12 hrs. after hemoglobin administration.\nA tracing depicting endotoxin-induced hypotension, its inhibition by hemoglobin, and subsequent administration of bovine serum albumin (5 grams) is shown in FIG. 1. Mean arterial blood pressure declined from 160 mm Hg to 70 mm Hg two hours after endotoxin administration. The hemoglobin (HgB) was subsequently administered as an intravenous bolus. […] This effect lasted approximately 45 minutes before the blood pressure decline resumed. […] On repetition of this experiment, substantially the same results were obtained."}, "[2]": {"system": "rabbit aortic rings", "conditions": "cited from earlier work"}, "[3]": {"system": "blood pressure", "conditions": "guinea pigs; cited from earlier work"}, "[4]": {"system": "blood pressure", "conditions": "rabbits; cited from earlier work"}, "[5]": {"experiment": "Kinetic 96-well microplate assay, capture of NO by Fe2+-myoglobin", "type": "biochemical", "conditions": "5 μM Mb, endothelial cell cytosol, 500 μM L-arginine, 500 μM NADPH, 80 mM TRIS pH 7.6, 25° C.", "procedure": "Nitric oxide formation by endothelial cell cytosol was measured by a novel kinetic 96-well microplate assay. The assay is based on the capture of NO by Fe^2+-myoglobin (Mb) which is subsequently oxidized to Fe^3+-myoglobin. The process of heme oxidation was continuously measured in a kinetic microplate reader (Molecular Devices, Menlo Park Calif.) as the rate of change in OD405-OD650. Data points were collected from all 96 wells every 16 sec. for 30 minutes at 25° C. with shaking prior to each OD measurement. The slope of the best fit regression line (OD/min) was used to calculate the rate of NO-synthesis. OD/min measurements were converted to pmoles NO/min by dividing by the increase in OD405-OD650 measured upon complete oxidation of 1 pmole of reduced Mb with a 10-fold molar excess of potassium ferricyanide. Under the conditions employed, the efficiency of NO capture by Mb approached 100%; neither doubling nor halving the concentration of Mb influenced the Mb oxidation rate. All samples contained 5-30 μl of endothelial cell cytosol (1-6 mg protein/ml) and final concentrations of 5 μM Mb, 500 μM L-arginine, 500 μM NADPH and 80 Mm TRIS, pH 7.6.\nFe^2+-Myoglobin Preparation: 2 mM myoglobin (from horse skeletal muscle, Sigma) was reduced with a sodium dithionite and immediately applied to a Sephadex G-25 column, followed by elution with 50 Mm TRIS buffer, Ph 7.6. […]"}},
  "note": "Where two headings read alike, the source gives them in different places.",
  "data": [
    {"molecule": "bovine serum albumin: bovine serum albumin (5 grams) given as protein comparison after hemoglobin [reference compound]", "values": [
      {"measurement": "subsequent blood pressure decline", "setting": "[1]; endotoxin-induced hypotension, 5 grams given after the hemoglobin effect ended", "value": "only slightly influenced"}
    ]},
    {"molecule": "hemoglobin: commercially available bovine hemoglobin, 5.0 g/100 ml, iron hemoprotein given intravenously", "values": [
      {"measurement": "endotoxin-induced mean arterial decline (FIG. 1)", "setting": "[1]; FIG. 1 legend", "value": "interrupted"},
      {"measurement": "duration of effect before the blood pressure decline resumed", "setting": "[1]; endotoxin 50 μg/kg i.v., 50 ml of 5.0 g/100 ml bovine hemoglobin over 20 seconds", "value": "approximately 45 minutes"},
      {"measurement": "blood pressure drop", "setting": "[1]; endotoxin 50 μg/kg i.v., intravenous bolus after mean arterial pressure fell from 160 to 70 mm Hg at two hours", "value": "abrogated"},
      {"measurement": "hypotension", "setting": "[1]; endotoxin 50 μg/kg i.v., intravenous bolus after onset of hypotension", "value": "partially reversed"},
      {"measurement": "endothelium-dependent relaxation induced by acetylcholine or by A23187", "setting": "[2]; 1 μM", "value": "reduced"},
      {"measurement": "endothelium-dependent relaxation induced by acetylcholine or by A23187", "setting": "[2]; 10 μM", "value": "abolished"}
    ]},
    {"molecule": "CNC(=N)NCCC[C@H](N)C(=O)O", "note": "[N^G-methyl-L-arginine]", "values": [
      {"measurement": "effect on blood pressure", "setting": "[3]", "value": "increase blood pressure"},
      {"measurement": "effect on blood pressure", "setting": "[4]", "value": "increase blood pressure"}
    ]},
    {"molecule": "Mb: myoglobin from horse skeletal muscle, Sigma, reduced to Fe2+ form (protein, UniProt P68082 2-154, looked up) Myoglobin: GLSDGEWQQVLNVWGKVEADIAGHGQEVLIRLFTGHPETLEKFDKFKHLKTEAEMKASEDLKKHGTVVLTALGGILKKKGHHEAELKPLAQSHATKHKIPIKYLEFISDAIIHVLHSKHPGDFGADAQGAMTKALELFRNDIAAKYKELGFQG", "values": [
      {"measurement": "efficiency of NO capture", "setting": "[5]", "value": "~100", "unit": "%"}
    ]}
  ]
}
